Measured values: patent US7196110B2, “N-substituted tricyclic 3-aminopyrazoles as inhibitors for the treatment of cell proliferative disorders” (Janssen Phamaceutica N.V., priority 2002, dated 2007)

Target: T1, PDGF-receptor beta enzyme comprising the tyrosine kinase domain (Homo sapiens, UniProt P09619)
T1 construct: from amino acid 545 to 1106 of GenBank Access NO: AAA36427
Experiment: Inhibition of PDGF-receptor kinase activity (cell-free, PLC1 peptide, 33P Flashplate)
Type: biochemical
Conditions: for inhibition at 10 µM: PDGF-R kinase activity, compound at 10 uM, read-out: Percent Inhibition @ 10 uM; for IC50: read-out: IC50 (μM) on PDGF-R kinase activity
Method in brief: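 Recombinant kinase domain (aa 545–1106) phosphorylated a biotinylated PLC1 peptide with 5 μM ATP plus 33P-γ-ATP, in Tris pH 8, MgCl2, Na3VO4 and 1 mM DTT, for 60 min at 30 °C. Retained 33P was counted after washing. IC50 is the concentration halving activity versus no-inhibitor reactions.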

T1 sequence (P09619 545-1106): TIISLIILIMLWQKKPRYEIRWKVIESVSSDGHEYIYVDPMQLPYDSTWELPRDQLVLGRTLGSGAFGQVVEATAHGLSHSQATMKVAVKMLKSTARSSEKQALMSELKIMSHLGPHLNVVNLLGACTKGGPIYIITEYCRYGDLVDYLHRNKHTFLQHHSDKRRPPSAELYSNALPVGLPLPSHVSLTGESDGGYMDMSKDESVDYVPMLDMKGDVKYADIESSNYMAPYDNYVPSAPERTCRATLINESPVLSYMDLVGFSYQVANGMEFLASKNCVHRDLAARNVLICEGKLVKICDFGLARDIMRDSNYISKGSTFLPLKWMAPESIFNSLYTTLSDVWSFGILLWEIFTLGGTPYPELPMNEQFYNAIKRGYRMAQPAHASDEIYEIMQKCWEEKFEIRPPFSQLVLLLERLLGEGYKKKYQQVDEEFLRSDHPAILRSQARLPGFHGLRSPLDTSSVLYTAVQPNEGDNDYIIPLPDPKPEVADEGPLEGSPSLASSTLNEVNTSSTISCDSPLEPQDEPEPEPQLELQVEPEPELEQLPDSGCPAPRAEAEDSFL

inhibition at 10 µM	IC50	Compound
82.5%	1.25 µM	COc1cc2c(cc1OC)-c1n[nH]c(Nc3ncccc3Br)c1C2 [Compound 582, (3-Bromo-pyridin-2-yl)-(6,7-dimethoxy-2,4-dihydro-indeno[1,2-c]pyrazol-3-yl)-amine]
82%	1.1 µM	COc1cc2c(cc1OC)-c1n[nH]c(Nc3ccc(Br)cn3)c1C2 [Compound 583, (5-Bromo-pyridin-2-yl)-(6,7-dimethoxy-2,4-dihydro-indeno[1,2-c]pyrazol-3-yl)-amine]
109%	0.0111 µM	COc1cc2c(cc1OC)-c1n[nH]c(Nc3cccc(OC(C)C)c3)c1C2 [Compound 584, (6,7-Dimethoxy-2,4-dihydro-indeno[1,2-c]pyrazol-3-yl)-(3-isopropoxy-phenyl)-amine]
86%	1.7 µM	COc1cc2c(cc1OC)-c1n[nH]c(Nc3ncccc3C)c1C2 [Compound 587, (6,7-Dimethoxy-2,4-dihydro-indeno[1,2-c]pyrazol-3-yl)-(3-methyl-pyridin-2-yl)-amine]
103%	0.556 µM	COc1cc2c(cc1OC)-c1n[nH]c(Nc3cc(C)cc(C)n3)c1C2 [Compound 588, (6,7-Dimethoxy-2,4-dihydro-indeno[1,2-c]pyrazol-3-yl)-(4,6-dimethyl-pyridin-2-yl)-amine]
96%	0.662 µM	COc1cc2c(cc1OC)-c1n[nH]c(N(c3cccc(F)c3)[C@@H]3O[C@H](C(=O)O)[C@@H](O)[C@H](O)[C@H]3O)c1C2 [Compound 591, 6-[(6,7-Dimethoxy-2,4-dihydro-indeno[1,2-c]pyrazol-3-yl)-(3-fluoro-phenyl)-amino]-3,4,5-trihydroxy-tetrahydro-pyran-2-carboxylic acid]
64%	0.0156 µM	CCOc1cc2c(cc1OCC)-c1n[nH]c(Nc3cccc(F)c3)c1C2 [Compound 594, (6,7-Diethoxy-2,4-dihydro-indeno[1,2-c]pyrazol-3-yl)-(3-fluoro-phenyl)-amine]
0%	98.4 µM	CCCCCCCCCCCCCCCNC(=O)n1nc2c(c1Nc1cccc(F)c1)Cc1cc(OC)c(OC)cc1-2 [Compound 598, 3-(3-Fluoro-phenylamino)-6,7-dimethoxy-4H-indeno[1,2-c]pyrazole-2-carboxylic acid pentadecylamide]
89%	2.29 µM	COc1cc2c(cc1OC)-c1n[nH]c(Nc3cccc(C(=O)NCCOCCOCCOCCNC(=O)CCCCC4SCC5NC(=O)NC54)c3)c1C2 (stereo not shown) [Compound 601, 3-(6,7-Dimethoxy-2,4-dihydro-indeno[1,2-c]pyrazol-3-ylamino)-N-{2-[2-(2-{2-[5-(2-oxo-hexahydro-thieno[3,4-d]imidazol-6-yl)-pentanoylamino]-ethoxy}-ethoxy)-ethoxy]-ethyl}-benzamide]
40%	–	COC(=O)Cn1nc2c(c1Nc1cccc(F)c1)Cc1cc(OC)c(OC)cc1-2 [Compound 602, [3-(3-Fluoro-phenylamino)-6,7-dimethoxy-4H-indeno[1,2-c]pyrazol-2-yl]-acetic acid methyl ester]
79.5%	2.13 µM	COc1cc2c(cc1OC)-c1nn(C(=O)NCCOCCOCCO)c(Nc3cccc(F)c3)c1C2 [Compound 604, 3-(3-Fluoro-phenylamino)-6,7-dimethoxy-4H-indeno[1,2-c]pyrazole-2-carboxylic acid {2-[2-(2-hydroxy-ethoxy)-ethoxy]-ethyl}-amide]
97.5%	0.0051 µM	COc1cc2c(c3nc(C)oc13)CC1C(Nc3cccc(F)c3)=NN=C21 (stereo not shown) [Compound 605, (3-Fluoro-phenyl)-(4-methoxy-2-methyl-7,9-dihydro-3-oxa-1,6,7-triaza-cyclopenta[b]-as-indacen-8-yl)-amine]
53.5%	–	COc1cc2c(c(Cc3ccccc3)c1O)-c1n[nH]c(Nc3cccc(F)c3)c1C2 [Compound 606, 8-Benzyl-3-(3-fluoro-phenylamino)-6-methoxy-2,4-dihydro-indeno[1,2-c]pyrazol-7-ol]
106%	0.026 µM	COc1cc2c(cc1O)-c1n[nH]c(Nc3cccc(F)c3)c1C2 [Compound 608, 3-(3-Fluoro-phenylamino)-6-methoxy-2,4-dihydro-indeno[1,2-c]pyrazol-7-ol]
84%	4.68 µM	COc1cc2c(cc1OC)-c1c(c(Nc3cccc(F)c3)nn1C)C2 [Compound 609]
51.5%	9.38 µM	COc1cc2c(cc1OC)-c1nn(C)c(Nc3cccc(F)c3)c1C2 [Compound 610, (6,7-dimethoxy-2-methyl-1,4-dihydro-indeno[1,2-c]pyrazole-3-yl)-(3-fluoro-phenyl)-amine]

The next lines start with the compound.

Compound	inhibition at 10 µM	IC50
COc1cc2c(cc1OC)-c1n[nH]c(Nc3cccc4c3OC(F)(F)O4)c1C2 [Compound 565, (2,2-Difluoro-benzo[1,3]dioxol-4-yl)-(6,7-dimethoxy-2,4-dihydro-indeno[1,2-c]pyrazol-3-yl)-amine]	41.5%	–
COc1cc2c(cc1OC)-c1n[nH]c(N3CCc4ccccc43)c1C2 [Compound 566, 3-(2,3-Dihydro-indol-1-yl)-6,7-dimethoxy-2,4-dihydro-indeno[1,2-c]pyrazole]	54%	–
COc1cc2c(cc1OC)-c1n[nH]c(N3CCc4cc(Br)ccc43)c1C2 [Compound 567, 3-(5-Bromo-2,3-dihydro-indol-1-yl)-6,7-dimethoxy-2,4-dihydro-indeno[1,2-c]pyrazole]	39.5%	–
COc1cc2c(cc1OC)-c1c(c(Nc3cccc(F)c3)nn1CCO)C2 [Compound 572, 2-[3-(3-Fluoro-phenylamino)-6,7-dimethoxy-4H-indeno[1,2-c]pyrazol-1-yl]-ethanol]	67%	7.33 µM
COc1cc2c(cc1OC)-c1nn(CCO)c(Nc3cccc(F)c3)c1C2 [Compound 573, 2-[3-(3-Fluoro-phenylamino)-6,7-dimethoxy-4H-indeno[1,2-c]pyrazol-2-yl]-ethanol]	52%	–
COc1cc2c(c3nc(C)oc13)Cc1c(NCc3ccccc3F)n[nH]c1-2 [Compound 574, (2-Fluoro-benzyl)-(4-methoxy-2-methyl-6,9-dihydro-3-oxa-1,6,7-triaza-cyclopenta[b]-as-indacen-8-yl)-amine]	99%	0.163 µM
COc1cc2c(cc1OC)-c1n[nH]c(NCc3ccccc3Br)c1C2 [Compound 575, (2-Bromo-benzyl)-(6,7-dimethoxy-2,4-dihydro-indeno[1,2-c]pyrazol-3-yl)-amine]	99.5%	0.00213 µM
COc1cc2c(cc1OC)-c1n[nH]c(Nc3ncc(Br)cc3C)c1C2 [Compound 576, (5-Bromo-3-methyl-pyridin-2-yl)-(6,7-dimethoxy-2,4-dihydro-indeno[1,2-c]pyrazol-3-yl)-amine]	18%	33.3 µM
COc1cc2c(cc1OC)-c1n[nH]c(Nc3cnccc3C(F)(F)F)c1C2 [Compound 577, (6,7-Dimethoxy-2,4-dihydro-indeno[1,2-c]pyrazol-3-yl)-(4-trifluoromethyl-pyridin-3-yl)-amine]	19%	362 µM
CNC(=O)n1nc2c(c1Nc1cccc(F)c1)Cc1cc(OC)c(OC)cc1-2 [Compound 579, 3-(3-Fluoro-phenylamino)-6,7-dimethoxy-4H-indeno[1,2-c]pyrazole-2-carboxylic acid methylamide]	28%	–
CNC(=S)n1nc2c(c1Nc1cccc(F)c1)Cc1cc(OC)c(OC)cc1-2 [Compound 580, 3-(3-Fluoro-phenylamino)-6,7-dimethoxy-4H-indeno[1,2-c]pyrazole-2-carbothioic acid methylamide]	93%	0.126 µM
CNC(=S)n1nc(Nc2cccc(F)c2)c2c1-c1cc(OC)c(OC)cc1C2 [Compound 581, 3-(3-Fluoro-phenylamino)-6,7-dimethoxy-4H-indeno[1,2-c]pyrazole-1-carbothioic acid methylamide]	90.5%	1.14 µM
